# *1 amine or outer side, *2 acyl side, *3 side chain or, on linkers, in order; H or OH if unused. Where a SMILES comes first, the peptide text is derived from it. Side-chain parts run from the residue outwards. The star is where a group is joined. C18 diacid = O=C(O)CCCCCCCCCCCCCCCCC(=O)*; γGlu = O=C(O)[C@H](CCC(=O)[*:2])N[*:1]; AEEA = NCCOCCOCC(=O)O
# How the values were obtained:
# PTHR1 = target: T1, PTHR1 (Homo sapiens, UniProt Q03431); assay: cAMP Hunter Teriparatide Bioassay (CHO-K1 PTHR1 cells); type: cell-based
# T1 construct: host or cells: CHO-K1
# T1 sequence (Q03431 27-593): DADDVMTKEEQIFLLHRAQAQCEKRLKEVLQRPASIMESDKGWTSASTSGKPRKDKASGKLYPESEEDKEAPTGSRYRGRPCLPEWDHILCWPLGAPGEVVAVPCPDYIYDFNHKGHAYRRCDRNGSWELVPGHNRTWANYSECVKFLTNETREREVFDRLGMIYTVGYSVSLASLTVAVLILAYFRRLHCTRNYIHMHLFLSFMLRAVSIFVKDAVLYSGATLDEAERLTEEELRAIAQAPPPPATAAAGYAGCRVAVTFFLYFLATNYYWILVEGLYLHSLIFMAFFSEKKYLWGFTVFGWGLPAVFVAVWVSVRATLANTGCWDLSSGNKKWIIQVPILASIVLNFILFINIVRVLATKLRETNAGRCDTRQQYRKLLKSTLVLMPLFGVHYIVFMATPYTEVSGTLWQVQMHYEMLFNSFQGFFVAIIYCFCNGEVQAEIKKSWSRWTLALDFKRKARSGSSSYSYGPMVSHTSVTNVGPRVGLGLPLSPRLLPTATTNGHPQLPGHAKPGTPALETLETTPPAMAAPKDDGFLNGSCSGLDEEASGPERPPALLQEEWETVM
# Experimental: The assessment of the bioactivity of a prodrug relative to its drug form was conducted in a proprietary commercial assay as contracted with Eurofins-Discover Rx Corporation win a cAMP Hunter® Teriparatide Bioassay (95-0118Y2). An 11-point dose curve in agonist mode was conducted for each individual peptide or incubation condition. Every sample was run at each dose in triplicate.
# An 11-point dose curve in agonist mode was conducted for each individual peptide or incubation condition. Every sample was run at each dose in triplicate.
# An 11-point dose curve in agonist mode was conducted for each individual peptide at each concentration. Every sample was run at each dose in triplicate.
# [1] = Cleavage half-life / conversion of PTH prodrugs in PBS pH 7.4, 37° C. by LC-MS; type: physicochemical
# Experimental: The resulting solution was incubated at 37° C. Aliquots were taken at designed time points and analyzed by LC-MS. […] Flow rate of 1 mL/min and a gradient of 10%-80% acetonitrile in water, with 0.1% trifluoroacetic acid over 10 min. […] The concentration of prodrug and drug were determined by their relative peak areas. The […] dissociation rate constant of the prodrug was determined by plotting the logarithm in the concentration of the prodrug at various time points.
compound,measurement,setting,value
CC[C@H](C)[C@H](NC(=O)[C@H](CCC(=O)O)NC(=O)[C@H](CO)NC(=O)[C@@H](NC(=O)[C@@H](N)CO)C(C)C)C(=O)N[C@@H](CCC(N)=O)C(=O)N[C@@H](CC(C)C)C(=O)N[C@@H](CCSC)C(=O)N[C@@H](Cc1c[nH]cn1)C(=O)N[C@@H](CC(N)=O)C(=O)N[C@@H](CC(C)C)C(=O)NCC(=O)N[C@@H](CCCCN)C(=O)N[C@@H](Cc1c[nH]cn1)C(=O)N[C@@H](CC(C)C)C(=O)N[C@@H](CC(=O)O)C(=O)N[C@@H](CO)C(=O)N[C@@H](CCSC)C(=O)N[C@@H](CCC(=O)O)C(=O)N[C@@H](CCCNC(=N)N)C(=O)N[C@H](C(=O)N[C@@H](CCC(=O)O)C(=O)N[C@@H](Cc1c[nH]c2ccccc12)C(=O)N[C@@H](CC(C)C)C(=O)N[C@@H](CCCNC(=N)N)C(=O)N[C@@H](CCCCN)C(=O)N[C@@H](CCCCN)C(=O)N[C@@H](CC(C)C)C(=O)N[C@@H](CCC(N)=O)C(=O)N[C@@H](CC(=O)O)C(=O)N[C@H](C(=O)N[C@@H](Cc1c[nH]cn1)C(=O)N[C@@H](CCCCNC(=O)CC[C@H](NC(=O)COCCOCCNC(=O)COCCOCCNC(=O)CC[C@H](NC(=O)CCCCCCCCCCCCCCCCC(=O)O)C(=O)O)C(=O)O)C(=O)O)C(C)C)C(C)C [SEQ ID NO: 122] (H-SVSEIQLMHNLGKHLDSMERVEWLRKKLQDVHK([γGlu-AEEA-AEEA-γGlu-C18 diacid])-OH; N-terminus and C-terminus assumed),Hillslope,PTHR1; FIG. 13B,2.522
same,S/B,PTHR1; FIG. 13B,8.2
CC[C@H](C)[C@H](NC(=O)[C@H](CCC(=O)O)NC(=O)[C@H](CO)NC(=O)[C@@H](NC(=O)[C@@H](N)CO)C(C)C)C(=O)N[C@@H](CCC(N)=O)C(=O)N[C@@H](CC(C)C)C(=O)N[C@@H](CCSC)C(=O)N[C@@H](Cc1c[nH]cn1)C(=O)N[C@@H](CC(=O)O)C(=O)N[C@@H](CC(C)C)C(=O)NCC(=O)N[C@@H](CCCCN)C(=O)N[C@@H](Cc1c[nH]cn1)C(=O)N[C@@H](CC(C)C)C(=O)N[C@@H](CC(N)=O)C(=O)N[C@@H](CO)C(=O)N[C@@H](CCSC)C(=O)N[C@@H](CCC(=O)O)C(=O)N[C@@H](CCCNC(=N)N)C(=O)N[C@H](C(=O)N[C@@H](CCC(=O)O)C(=O)N[C@@H](Cc1c[nH]c2ccccc12)C(=O)N[C@@H](CC(C)C)C(=O)N[C@@H](CCCNC(=N)N)C(=O)N[C@@H](CCCCN)C(=O)N[C@@H](CCCCN)C(=O)N[C@@H](CC(C)C)C(=O)N[C@@H](CCC(N)=O)C(=O)N[C@@H](CC(=O)O)C(=O)N[C@H](C(=O)N[C@@H](Cc1c[nH]cn1)C(=O)N[C@@H](CCCCNC(=O)CC[C@H](NC(=O)COCCOCCNC(=O)COCCOCCNC(=O)CC[C@H](NC(=O)CCCCCCCCCCCCCCCCC(=O)O)C(=O)O)C(=O)O)C(=O)O)C(C)C)C(C)C [SEQ ID NO: 120] (H-SVSEIQLMHDLGKHLNSMERVEWLRKKLQDVHK([γGlu-AEEA-AEEA-γGlu-C18 diacid])-OH),Hillslope,PTHR1; FIG. 13A,2.804
same,S/B,PTHR1; FIG. 13A,10
CC[C@H](C)[C@H](NC(=O)[C@H](CCC(=O)O)NC(=O)[C@H](CO)NC(=O)[C@@H](NC(=O)[C@@H](N)CO)C(C)C)C(=O)N[C@@H](CCC(N)=O)C(=O)N[C@@H](CC(C)C)C(=O)N[C@@H](CCSC)C(=O)N[C@@H](Cc1c[nH]cn1)C(=O)N[C@@H](CC(N)=O)C(=O)N[C@@H](CC(C)C)C(=O)NCC(=O)N[C@@H](CCCCN)C(=O)N[C@@H](Cc1c[nH]cn1)C(=O)N[C@@H](CC(C)C)C(=O)N[C@@H](CC(N)=O)C(=O)N[C@@H](CO)C(=O)N[C@@H](CCSC)C(=O)N[C@@H](CCC(=O)O)C(=O)N[C@@H](CCCNC(=N)N)C(=O)N[C@H](C(=O)N[C@@H](CCC(=O)O)C(=O)N[C@@H](Cc1c[nH]c2ccccc12)C(=O)N[C@@H](CC(C)C)C(=O)N[C@@H](CCCNC(=N)N)C(=O)N[C@@H](CCCCN)C(=O)N[C@@H](CCCCN)C(=O)N[C@@H](CC(C)C)C(=O)N[C@@H](CCC(=O)O)C(=O)N[C@@H](CC(=O)O)C(=O)N[C@H](C(=O)N[C@@H](Cc1c[nH]cn1)C(=O)N[C@@H](CCCCNC(=O)CC[C@H](NC(=O)COCCOCCNC(=O)COCCOCCNC(=O)CC[C@H](NC(=O)CCCCCCCCCCCCCCCCC(=O)O)C(=O)O)C(=O)O)C(=O)O)C(C)C)C(C)C [SEQ ID NO: 124] (H-SVSEIQLMHNLGKHLNSMERVEWLRKKLEDVHK([γGlu-AEEA-AEEA-γGlu-C18 diacid])-OH; N-terminus and C-terminus assumed),Hillslope,PTHR1; FIG. 13B,1.797
same,S/B,PTHR1; FIG. 13B,8.9
CC[C@H](C)[C@H](NC(=O)[C@H](CCC(=O)O)NC(=O)[C@H](CO)NC(=O)[C@@H](NC(=O)[C@H](CO)NC(=O)CN(C)C(=O)[C@H](N)CCCCN)C(C)C)C(=O)N[C@@H](CCC(N)=O)C(=O)N[C@@H](CC(C)C)C(=O)N[C@@H](CCSC)C(=O)N[C@@H](Cc1c[nH]cn1)C(=O)N[C@@H](CC(N)=O)C(=O)N[C@@H](CC(C)C)C(=O)NCC(=O)N[C@@H](CCCCN)C(=O)N[C@@H](Cc1c[nH]cn1)C(=O)N[C@@H](CC(C)C)C(=O)N[C@@H](CC(N)=O)C(=O)N[C@@H](CO)C(=O)N[C@@H](CCSC)C(=O)N[C@@H](CCC(=O)O)C(=O)N[C@@H](CCCNC(=N)N)C(=O)N[C@H](C(=O)N[C@@H](CCC(=O)O)C(=O)N[C@@H](Cc1c[nH]c2ccccc12)C(=O)N[C@@H](CC(C)C)C(=O)N[C@@H](CCCNC(=N)N)C(=O)N[C@@H](CCCCN)C(=O)N[C@@H](CCCCN)C(=O)N[C@@H](CC(C)C)C(=O)N[C@@H](CCC(N)=O)C(=O)N[C@@H](CC(=O)O)C(=O)N[C@H](C(=O)N[C@@H](Cc1c[nH]cn1)C(=O)N[C@@H](CC(N)=O)C(=O)N[C@@H](Cc1ccccc1)C(=O)N[C@@H](CCCCNC(=O)CC[C@H](NC(=O)CCCCCCCCCCCCCCCCC(=O)O)C(=O)O)C(N)=O)C(C)C)C(C)C [SEQ ID NO: 57],half-life,"[1]; PBS buffer, dipeptide cleavage from PTH prodrug, PBS pH 7.4, 37° C., read-out: Half life (converted)",49 h
same,"Half life, fold faster (vs SEQ ID NO: 45)",[1]; comparator SEQ ID NO: 45,1.8 faster without
SEQ ID NO: 109: PTH analog site-specifically modified by oxidation to methionine sulfoxide (SVSEIQLXHNLGKHLNSMERVEWLRKKLQDVHX; SITE 8 MISC_FEATURE - Xaa at position 8 is Met wherein the side chain is oxidized to form a sulfoxide; SITE 33 MISC_FEATURE - Xaa at position 33 is Lys wherein the side chain is acylated with COC16H32CO2H via a gamma Glu-(MINIPEG)2-gamma Glu spacer; listed as Homo sapiens),S/B,PTHR1; FIG. 12,1.7
CC[C@H](C)[C@H](NC(=O)[C@H](CCC(=O)O)NC(=O)[C@H](CO)NC(=O)[C@@H](NC(=O)[C@@H](N)CO)C(C)C)C(=O)N[C@@H](CCC(=O)O)C(=O)N[C@@H](CC(C)C)C(=O)N[C@@H](CCSC)C(=O)N[C@@H](Cc1c[nH]cn1)C(=O)N[C@@H](CC(N)=O)C(=O)N[C@@H](CC(C)C)C(=O)NCC(=O)N[C@@H](CCCCN)C(=O)N[C@@H](Cc1c[nH]cn1)C(=O)N[C@@H](CC(C)C)C(=O)N[C@@H](CC(N)=O)C(=O)N[C@@H](CO)C(=O)N[C@@H](CCSC)C(=O)N[C@@H](CCC(=O)O)C(=O)N[C@@H](CCCNC(=N)N)C(=O)N[C@H](C(=O)N[C@@H](CCC(=O)O)C(=O)N[C@@H](Cc1c[nH]c2ccccc12)C(=O)N[C@@H](CC(C)C)C(=O)N[C@@H](CCCNC(=N)N)C(=O)N[C@@H](CCCCN)C(=O)N[C@@H](CCCCN)C(=O)N[C@@H](CC(C)C)C(=O)N[C@@H](CCC(N)=O)C(=O)N[C@@H](CC(=O)O)C(=O)N[C@H](C(=O)N[C@@H](Cc1c[nH]cn1)C(=O)N[C@@H](CCCCNC(=O)CC[C@H](NC(=O)COCCOCCNC(=O)COCCOCCNC(=O)CC[C@H](NC(=O)CCCCCCCCCCCCCCCCC(=O)O)C(=O)O)C(=O)O)C(=O)O)C(C)C)C(C)C [SEQ ID NO: 118] (H-SVSEIELMHNLGKHLNSMERVEWLRKKLQDVHK([γGlu-AEEA-AEEA-γGlu-C18 diacid])-OH; N-terminus and C-terminus assumed),Hillslope,PTHR1; FIG. 13A,1.648
same,S/B,PTHR1; FIG. 13A,9.4
CC[C@H](C)[C@H](NC(=O)[C@H](CCC(=O)O)NC(=O)[C@H](CO)NC(=O)[C@@H](NC(=O)[C@@H](N)CO)C(C)C)C(=O)N[C@@H](CCC(N)=O)C(=O)N[C@@H](CC(C)C)C(=O)N[C@@H](CCSC)C(=O)N[C@@H](Cc1c[nH]cn1)C(=O)N[C@@H](CC(N)=O)C(=O)N[C@@H](CC(C)C)C(=O)NCC(=O)N[C@@H](CCCCN)C(=O)N[C@@H](Cc1c[nH]cn1)C(=O)N[C@@H](CC(C)C)C(=O)N[C@@H](CC(N)=O)C(=O)N[C@@H](CO)C(=O)N[C@@H](CC[S+](C)[O-])C(=O)N[C@@H](CCC(=O)O)C(=O)N[C@@H](CCCNC(=N)N)C(=O)N[C@H](C(=O)N[C@@H](CCC(=O)O)C(=O)N[C@@H](Cc1c[nH]c2ccccc12)C(=O)N[C@@H](CC(C)C)C(=O)N[C@@H](CCCNC(=N)N)C(=O)N[C@@H](CCCCN)C(=O)N[C@@H](CCCCN)C(=O)N[C@@H](CC(C)C)C(=O)N[C@@H](CCC(N)=O)C(=O)N[C@@H](CC(=O)O)C(=O)N[C@H](C(=O)N[C@@H](Cc1c[nH]cn1)C(=O)N[C@@H](CCCCNC(=O)CC[C@H](NC(=O)COCCOCCNC(=O)COCCOCCNC(=O)CC[C@H](NC(=O)CCCCCCCCCCCCCCCCC(=O)O)C(=O)O)C(=O)O)C(=O)O)C(C)C)C(C)C (stereo partly shown) [SEQ ID NO: 110],Hillslope,PTHR1; FIG. 12,3.034
same,S/B,PTHR1; FIG. 12,14.2

# Reference: US20260224716A1, “PTH ANALOGS FOR THE TREATMENT OF HYPOPARATHYROIDISM” (priority 2020, published 2026)
